Our source for the melting point and IC50 values is US6906094B2, “1,2,4-tribsubstituted benzenes as inhibitors of 15-lipoxygenase” (Warner-Lambert Company, priority 2000, dated 2005).

Data set [1] addresses T1, rabbit reticulocyte 15-LO (Oryctolagus cuniculus, UniProt P12530).
T1 construct: 15-LO is obtained from phenylhydrazine-treated rabbits and purified according to the method of Rapoport; from tissue; host or cells: reticulocytes of phenylhydrazine-treated rabbits
T1 sequence (P12530 1-663): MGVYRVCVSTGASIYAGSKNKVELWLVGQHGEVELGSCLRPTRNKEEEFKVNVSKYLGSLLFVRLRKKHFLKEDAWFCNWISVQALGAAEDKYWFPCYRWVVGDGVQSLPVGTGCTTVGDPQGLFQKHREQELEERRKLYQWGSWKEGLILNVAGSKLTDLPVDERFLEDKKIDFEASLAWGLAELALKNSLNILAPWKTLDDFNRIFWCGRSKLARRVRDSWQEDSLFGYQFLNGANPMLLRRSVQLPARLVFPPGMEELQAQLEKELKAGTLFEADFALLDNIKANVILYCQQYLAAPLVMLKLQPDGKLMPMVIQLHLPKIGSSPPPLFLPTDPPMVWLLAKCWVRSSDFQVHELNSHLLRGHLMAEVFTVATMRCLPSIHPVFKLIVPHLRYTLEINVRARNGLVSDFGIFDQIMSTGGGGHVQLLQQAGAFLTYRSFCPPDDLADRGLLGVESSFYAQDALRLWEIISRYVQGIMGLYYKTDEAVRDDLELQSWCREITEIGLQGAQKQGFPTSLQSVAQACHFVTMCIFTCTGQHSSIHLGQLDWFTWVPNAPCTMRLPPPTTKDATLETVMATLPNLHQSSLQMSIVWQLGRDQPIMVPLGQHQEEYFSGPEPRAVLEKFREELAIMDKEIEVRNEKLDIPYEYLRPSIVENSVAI
Briefly: Rabbit Reticulocyte 15-LO Assay (H15LO). Type of data set: biochemical. The note with it: 2 U rabbit reticulocyte 15-LO, 174 μM linoleic acid, 15 minutes at 4° C., 13-HODE quantitated. The method, then:
In the H15LO assay, a test compound was incubated with 15-LO enzyme in the presence of the linoleic acid substrate. For example, 2 units (U) of rabbit reticulocyte 15-LO and 174 μM linoleic acid were incubated with a known amount of a test compound of the present invention for 15 minutes at 4° C. The total reaction volume was 100 μL in phosphate buffer saline (PBS) containing 0.2% sodium cholate. The reaction was stopped with 100 μL of mobile phase and […] of triethyl phosphite. […] 13-HODE was quantitated by comparing peak areas of individual samples with those from a standard curve generated using authentic 13-HODE.
15-LO is obtained from phenylhydrazine-treated rabbits and purified according to the method of Rapoport (Rapoport et al., European Journal of Biochemistry, 1979;96:545-561).

Another data set deals with T2, human 15-LO (Homo sapiens, UniProt P16050).
T2 construct: made in house; host or cells: Sf9 insect cells (baculovirus, Bac-to-Bac)
T2 sequence (P16050 1-662): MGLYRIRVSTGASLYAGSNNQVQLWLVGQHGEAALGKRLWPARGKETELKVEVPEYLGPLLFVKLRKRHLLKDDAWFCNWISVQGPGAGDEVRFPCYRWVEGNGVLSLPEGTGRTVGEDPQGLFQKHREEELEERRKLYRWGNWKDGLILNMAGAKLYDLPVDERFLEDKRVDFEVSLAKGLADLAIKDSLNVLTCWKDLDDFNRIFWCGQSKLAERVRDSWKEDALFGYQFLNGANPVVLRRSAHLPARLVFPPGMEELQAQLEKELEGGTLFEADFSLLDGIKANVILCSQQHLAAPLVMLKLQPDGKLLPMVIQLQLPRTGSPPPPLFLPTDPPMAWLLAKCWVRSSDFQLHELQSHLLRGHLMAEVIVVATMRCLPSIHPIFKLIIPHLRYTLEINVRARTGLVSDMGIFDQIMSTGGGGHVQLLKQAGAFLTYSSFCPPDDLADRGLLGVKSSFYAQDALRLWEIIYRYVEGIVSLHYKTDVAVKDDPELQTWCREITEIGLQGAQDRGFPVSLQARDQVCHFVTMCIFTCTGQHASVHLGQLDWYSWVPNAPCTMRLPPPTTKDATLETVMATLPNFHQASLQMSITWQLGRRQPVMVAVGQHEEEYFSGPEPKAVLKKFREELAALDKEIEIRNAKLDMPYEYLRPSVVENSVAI
Briefly: Human Lysate 15-LO Assay (HUM15LO). Format: biochemical. The note with it: recombinant human 15-LO, 174 μM linoleic acid, 15 minutes at 4° C., 13-HODE quantitated. The procedure:
In the HUM15LO assay, a test compound of the present invention was incubated with 15-LO enzyme in the presence of the linoleic acid substrate. For example, a known amount of a test compound of the present invention, 100 μL of human 15-LO, and 174 μM linoleic acid in PBS containing 0.2% sodium cholate were incubated for 15 minutes at 4° C. The reaction was stopped with 100 μL of mobile phase and 10 μL of triethyl phosphite. […] 13-HODE was quantitated by comparing peak areas of individual samples with those from a standard curve generated using authentic 13-HODE. The test reaction is compared to a control reaction, which is identical to the test reaction except no test compound of the present invention is present Percent inhibition is calculated as the amount of 13-HODE produced by the test reaction divided by the amount of 13-HODE produced by the control reaction, expressed as a percent.
Human 15-LO was generated in a recombinant 15-lipoxygenase bacculovirus expression system, using Gibco/BRL/Life Technologies' Bac-to-Bac expression reagents; T4 DNA ligase, Kanamycin, Gentamicin, tetracycline, penicillin, streptomycin, Bluo-gal, IPTG, DH10Bac competent cells, SOC, LB medium, Sf-900 II SFM media, Sf9 insect cells, Cell Fectin, and EcoRI, BamHI and KpnI restriction enzymes.

A word on the melting point: it is the temperature of the solid-liquid transition. The term IC50 denotes the midpoint of a concentration-inhibition curve.

As to `COc1ccc(C(=O)Nc2ccc(F)c(F)c2)cc1NS(=O)(=O)NC(=O)OCCCc1ccncc1` (hydrate or solvate) [Example 39, Carbamic Acid, [[[5-[[(3,4-difluorophenyl)amino]carbonyl]-2-methoxyphenyl]amino]sulfonyl]-, 3-(4-pyridinyl)propyl ester], the melting point is 160 to 164 °C.

Molecule `COc1ccc(-c2cc3cc(F)c(F)cc3[nH]2)cc1NS(=O)(=O)NC(=O)OCCc1ccccc1` (hydrate or solvate) [Example 40, Carbamic Acid, [[[5-(5,6-difluoro-IH-indol-2-yl)-2-methoxyphenyl]amino]-sulfonyl]-2-phenylethyl ester] had a melting point of 180 to 182 °C.

Consider `COc1ccc(C(=O)Nc2ccc(F)c(F)c2)cc1NS(=O)(=O)NC(=O)OCCc1ccccc1` (hydrate or solvate) [Example 41], for which the melting point fell in the range of 173 to 177 °C.

In turn, `COC(=O)COC(=O)NS(=O)(=O)Nc1cc(-c2cc3cc(F)c(F)cc3[nH]2)ccc1OC` (hydrate or solvate) [Example 43, Acetic Acid, [[[[[[5-(5,6-difluoro-1H-indol-2-yl)-2-methoxyphenyl]amino]-sulfonyl]amino]carbonyl]oxy]-, Methyl ester] had a melting point of 190 to 192 °C.

Turning to `COc1ccc(-c2cc3cc(F)c(F)cc3[nH]2)cc1NS(=O)(=O)NC(=O)OC(C)(C)C` (hydrate or solvate) [Example 53, Carbamic Acid, [[[5-(5,6-difluoro-indol-2-yl)-2-methoxyphenyl]amino]-sulfonyl]-, 1,1-dimethylethyl ester], the melting point was 158 to 160 °C.

Molecule `COc1ccc(C(=O)Nc2ccc(F)c(F)c2)cc1NS(=O)(=O)NC(=O)Nc1ccc(C(C)(C)C)cc1` (hydrate or solvate) [Example 59, Benzamide, N-(3,4-difluorophenyl)-3-[[[[[[4-(1,1-dimethylethyl)phenyl]-amino]carbonyl]amino]sulfonyl]amino]-4-methoxy] came in with a melting point of 199 to 202 °C.

As to `COc1ccc(C(=O)Nc2ccc(F)c(F)c2)cc1NS(=O)(=O)NC(=O)Nc1cccc([N+](=O)[O-])c1` (hydrate or solvate) [Example 60, Benzamide, N-(3,4-difluorophenyl)-4-methoxy-3-[[[[[(3-nitrophenyl) -amino]carbonyl]amino]sulfonyl]amino]], the melting point fell in the range of 206 to 208 °C.

On to `COc1ccc(C(=O)Nc2ccc(F)c(F)c2)cc1NS(=O)(=O)NC(=O)Nc1cc(C(F)(F)F)cc(C(F)(F)F)c1` (hydrate or solvate) [Example 62, Benzamide, 3-[[[[[[3,5-bis(trifluoromethyl)phenyl]amino]-carbonyl]amino]-sulfonyl]amino]-N-(3,4-difluorophenyl)-4-methoxy], for which the melting point is 175 to 178 °C.

For the molecule `COc1ccc(C(=O)Nc2ccc(F)c(F)c2)cc1NS(=O)(=O)NC(=O)OCC(C)C` [Example 23, Carbamic Acid, [[(5-[[(3,4-difluorophenyl)amino]carbonyl]-2-methoxyphenyl]amino]sulfonyl]-, 2-methylpropyl ester], the melting point lay in the range of 188 to 190 °C.

Turning to `CCCCCCCOC(=O)NS(=O)(=O)Nc1cc(-c2cc3cc(F)c(F)cc3[nH]2)ccc1OC` [Example 30, Carbamic Acid, [[[5-(5,6-difluoro-IH-indo-2-yl)2-methoxyphenyl]amino]-sulfonyl]-heptyl ester], the melting point was 178 to 180 °C. Besides, 5 nM corresponded to half-maximal inhibition in data set [1] (IC50). In addition, the half-maximal inhibitory concentration (IC50) at human 15-LO was 14 nM.

Molecule `COC(=O)COC(=O)NS(=O)(=O)Nc1cc(C(=O)Nc2ccc(F)c(F)c2)ccc1OC` [Example 44, Acetic Acid, [[[[[[5-[[(3,4-difluorophenyl)amino]carbonyl]-2-methoxyphenyl]-amino]sulfonyl]amino]carbonyl]oxy]-, Methyl ester] came in with a melting point of 177 to 180 °C. Also, on human 15-LO, the IC50 came to 236 nM.

On to `COc1ccc(C(=O)Nc2ccc(F)c(F)c2)cc1NS(=O)(=O)NC(=O)OCCCO` [Example 46, Carbamic Acid, [[[5-[[(3,4-difluorophenyl)amino]carbonyl]-2-methoxyphenyl]amino]sulfonyl]-, 3-hydroxypropyl ester], for which the melting point is 178 to 179 °C. The IC50 on human 15-LO came to 830 nM.

Molecule `CCOCCOC(=O)NS(=O)(=O)Nc1cc(C(=O)Nc2ccc(F)c(F)c2)ccc1OC` [Example 48, Carbamic Acid, [[[5[[(3,4-difluorophenyl)amino]carbonyl]-2-methoxyphenyl]amino]sulfonyl]-, 2-ethoxyethyl ester] displayed a melting point of 179 to 182 °C. The IC50 on human 15-LO came out at 306 nM.

Turning to `COc1ccc(C(=O)Nc2ccc(F)c(F)c2)cc1NS(=O)(=O)NC(=O)OCCN1C(=O)c2ccccc2C1=O` [Example 56, Carbamic Acid, [[[5-[[(3,4-difluorophenyl)amino]carbonyl]-2-methoxyphenyl]amino]sulfonyl]-, 2-(1,3-dihydro-1,3-dioxo-2H-isoindol-2-yl)ethyl ester], the melting point was 203 to 205 °C. The IC50 on human 15-LO was 341 nM.

In turn, `COc1ccc(C(=O)Nc2ccc(F)c(F)c2)cc1NS(=O)(=O)NC(=O)OC(C)(C)C` [Example 58, Carbamic acid, [[[5-[[(3,4-difluorophenyl)amino]carbonyl]-2-methoxyphenyl]amino]sulfonyl]-, 1,1-dimethylethyl ester] gave a melting point of 193 to 194 °C. The IC50 on human 15-LO came out at 751 nM.

`COc1ccc(C(=O)Nc2ccc(F)c(F)c2)cc1NS(=O)(=O)NC(=O)Nc1cccc(C(F)(F)F)c1` [Example 64, Benzamide, N-(3,4-difluorophenyl)methoxy-3-[[[[[[3-(trifluoromethyl)phenyl]amino]carbonyl]amino]sulfonyl]amino]]: the melting point was in the range of 198 to 200 °C. In addition, the concentration for half-maximal inhibition (IC50) on human 15-LO was found to be 24 nM.

In turn, `COc1ccc(C(=O)Nc2ccc(F)c(F)c2)cc1NS(=O)(=O)NC(=O)Nc1ccc(Cl)cc1` [Example 68, Benzamide, 3-[[[[[(4-chlorophenyl)amino]carbonyl]amino]sulfonyl]amino]-N-(3,4-difluorophenyl)-4-methoxy] gave a melting point of 195 to 198 °C. The IC50 on human 15-LO came to 359 nM.
